pIC50: −log10 of the molar value.
Tested on: HeLa
Assay: Proliferation assay (crystal violet), HeLa
Format: cell-based
Settings: Homo sapiens, HeLa, 96 h, HeLa cells; 4 days incubation; crystal violet staining; read-out: IC50 inhibition of proliferation, HeLa
In short: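 Cells plated at 1000-5000/well with 10% FCS, treated after 24 h with compound at 0.001-10 μM (0.5% DMSO) for 4 days. Glutaraldehyde-fixed, crystal violet-stained, A595 normalised to zero-point plate (0%) and untreated cells (100%); IC50 by 4-parameter fit.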

## Cc1nsc(Nc2cnc(C(F)(F)F)cn2)c1C(=O)Nc1ccc(O[C@@H]2CCN(CCC(F)(F)F)C[C@@H]2F)nc1 [Example 139, N-(6-{[(3S,4R)-3-fluoro-1-(3,3,3-trifluoropropyl)piperidin-4-yl]oxy}pyridin-3-yl)-3-methyl-5-{[5-(trifluoromethyl)pyrazin-2-yl]amino}-1,2-thiazole-4-carboxamide]
  pIC50: 6.59

## CCCN1CC[C@@H](Oc2ccc(NC(=O)c3c(C)nsc3Nc3cnc(C(F)(F)F)cn3)cn2)[C@@H](F)C1 [Example 140, N-(6-{[(3S,4R)-3-fluoro-1-propylpiperidin-4-yl]oxy}pyridin-3-yl)-3-methyl-5-{[5-(trifluoromethyl)pyrazin-2-yl]amino}-1,2-thiazole-4-carboxamide]
  pIC50: 6.66

## CCCCN1CC[C@@H](Oc2ccc(NC(=O)c3c(C)nsc3Nc3cnc(C(F)(F)F)cn3)cn2)[C@@H](F)C1 [Example 141, N-(6-{[(3S,4R)-1-butyl-3-fluoropiperidin-4-yl]oxy}pyridin-3-yl)-3-methyl-5-{[5-(trifluoromethyl)pyrazin-2-yl]amino}-1,2-thiazole-4-carboxamide]
  pIC50: 6.47

## Cc1nsc(Nc2cnc(C(F)(F)F)cn2)c1C(=O)Nc1ccc(O[C@H]2CCN(CC(F)F)C[C@H]2F)nc1 [Example 144, N-(6-{[(3R,4S)-1-(2,2-difluoroethyl)-3-fluoropiperidin-4-yl]oxy}pyridin-3-yl)-3-methyl-5-{[5-(trifluoromethyl)pyrazin-2-yl]amino}-1,2-thiazole-4-carboxamide]
  pIC50: 6.80

## Cc1nsc(Nc2cnc(C(F)(F)F)cn2)c1C(=O)Nc1ccc(O[C@H]2CCN(CC(F)(F)F)C[C@H]2F)nc1 [Example 145, N-(6-{[(3R,4S)-3-fluoro-1-(2,2,2-trifluoroethyl)piperidin-4-yl]oxy}pyridin-3-yl)-3-methyl-5-{[5-(trifluoromethyl)pyrazin-2-yl]amino}-1,2-thiazole-4-carboxamide]
  pIC50: 6.80

## Cc1nsc(Nc2cnc(C(F)(F)F)cn2)c1C(=O)Nc1ccc(O[C@H]2CCN(CCC(F)(F)F)C[C@H]2F)nc1 [Example 146, N-(6-{[(3R,4S)-3-fluoro-1-(3,3,3-trifluoropropyl)piperidin-4-yl]oxy}pyridin-3-yl)-3-methyl-5-{[5-(trifluoromethyl)pyrazin-2-yl]amino}-1,2-thiazole-4-carboxamide]
  pIC50: 6.62

## CCCN1CC[C@H](Oc2ccc(NC(=O)c3c(C)nsc3Nc3cnc(C(F)(F)F)cn3)cn2)[C@H](F)C1 [Example 147, N-(6-{[(3R,4S)-3-fluoro-1-propylpiperidin-4-yl]oxy}pyridin-3-yl)-3-methyl-5-{[5-(trifluoromethyl)pyrazin-2-yl]amino}-1,2-thiazole-4-carboxamide]
  pIC50: 6.49

## CCCCN1CC[C@H](Oc2ccc(NC(=O)c3c(C)nsc3Nc3cnc(C(F)(F)F)cn3)cn2)[C@H](F)C1 [Example 148, N-(6-{[(3R,4S)-1-butyl-3-fluoropiperidin-4-yl]oxy}pyridin-3-yl)-3-methyl-5-{[5-(trifluoromethyl)pyrazin-2-yl]amino}-1,2-thiazole-4-carboxamide]
  pIC50: 6.43

## Cc1nsc(Nc2cnc3cc(F)ccc3n2)c1C(=O)Nc1ccc(S(N)(=O)=O)cc1 [Example 149, 5-[(6-fluoroquinoxalin-2-yl)amino]-3-methyl-N-(4-sulfamoylphenyl)-1,2-thiazole-4-carboxamide]
  pIC50: < 5.00

## Cc1nsc(Nc2ccc(C#N)cn2)c1C(=O)Nc1cccc(S(C)(=O)=O)c1 [Example 150, 5-[(5-cyanopyridin-2-yl)amino]-3-methyl-N-[3-(methylsulfonyl)phenyl]-1,2-thiazole-4-carboxamide]
  pIC50: 5.55

## Cc1nsc(Nc2cnc(C(F)(F)F)cn2)c1C(=O)Nc1ccc(F)c(C(N)=O)c1 [Example 151, N-(3-carbamoyl-4-fluorophenyl)-3-methyl-5-{[5-(trifluoromethyl)pyrazin-2-yl]amino}-1,2-thiazole-4-carboxamide]
  pIC50: 5.05

## CC(=O)Nc1cc(NC(=O)c2c(C)nsc2Nc2ccc(C#N)cn2)ccc1F [Example 152, N-(3-acetamido-4-fluorophenyl)-5-[(5-cyanopyridin-2-yl)amino]-3-methyl-1,2-thiazole-4-carboxamide]
  pIC50: < 5.00

## Cc1nsc(Nc2cnc(C(F)(F)F)cn2)c1C(=O)Nc1ccc(C(=O)NCCN2CCCC(F)(F)C2)cc1 [Example 153, N-(4-{[2-(3,3-difluoropiperidin-1-yl)ethyl]carbamoyl}phenyl)-3-methyl-5-{[5-(trifluoromethyl)pyrazin-2-yl]amino}-1,2-thiazole-4-carboxamide]
  pIC50: 5.55

## Cc1nsc(Nc2cnc(C(F)(F)F)cn2)c1C(=O)Nc1ccc(C(=O)N2CCN(CC(F)F)CC2)cc1 [Example 154, N-(4-{[4-(2,2-difluoroethyl)piperazin-1-yl]carbonyl}phenyl)-3-methyl-5-{[5-(trifluoromethyl)pyrazin-2-yl]amino}-1,2-thiazole-4-carboxamide]
  pIC50: 5.60

## Cc1nsc(Nc2cncc(C(F)(F)F)n2)c1C(=O)Nc1ccc(C(=O)NCCN2CCCC(F)C2)cc1 (centres unmarked) [Example 155, N-(4-{[2-(3-fluoropiperidin-1-yl)ethyl]carbamoyl}phenyl)-3-methyl-5-{[6-(trifluoromethyl)pyrazin-2-yl]amino}-1,2-thiazole-4-carboxamide]
  pIC50: 5.00

## Cc1nsc(Nc2cnc3ccccc3n2)c1C(=O)Nc1ccc(C(=O)NCCN2CCCC(F)(F)C2)cc1 [Example 156, N-(4-{[2-(3,3-difluoropiperidin-1-yl)ethyl]carbamoyl}phenyl)-3-methyl-5-(quinoxalin-2-ylamino)-1,2-thiazole-4-carboxamide]
  pIC50: < 5.00

## Cc1nsc(Nc2cnc3ccccc3n2)c1C(=O)Nc1ccc(C(=O)N2CCN(CC(F)F)CC2)cc1 [Example 157, N-(4-{[4-(2,2-difluoroethyl)piperazin-1-yl]carbonyl}phenyl)-3-methyl-5-(quinoxalin-2-ylamino)-1,2-thiazole-4-carboxamide]
  pIC50: < 5.00

## Cc1nsc(Nc2cnc3ccccc3n2)c1C(=O)Nc1ccc(C(=O)NC2CN(C(=O)OC(C)(C)C)CC(F)(F)C2)cc1 (centres unmarked) [Example 158, tert-butyl 3,3-difluoro-5-{[4-({[3-methyl-5-(quinoxalin-2-ylamino)-1,2-thiazol-4-yl]carbonyl}amino)benzoyl]amino} piperidine-1-carboxylate]
  pIC50: 5.49

## Cc1nsc(Nc2cnc3ccccc3n2)c1C(=O)Nc1ccc(C(=O)N2CCCN(CC(F)(F)F)CC2)cc1 [Example 159]
  pIC50: 5.64

## Cc1nsc(Nc2cnc(C(F)(F)F)cn2)c1C(=O)Nc1ccc(OC2CCN(C(C)C)CC2)nc1 [Example 160, N-{6-[(1-isopropylpiperidin-4-yl)oxy]pyridin-3-yl}-3-methyl-5-{[5-(trifluoromethyl)pyrazin-2-yl]amino}-1,2-thiazole-4-carboxamide]
  pIC50: 5.48

## Cc1nsc(Nc2cnc(C(F)(F)F)cn2)c1C(=O)Nc1ccc(OC2CCN(CCF)CC2)c(F)c1 [Example 162, N-(3-fluoro-4-{[1-(2-fluoroethyl)piperidin-4-yl]oxy}phenyl)-3-methyl-5-{[5-(trifluoromethyl)pyrazin-2-yl]amino}-1,2-thiazole-4-carboxamide]
  pIC50: 6.48

## Cc1nsc(Nc2cnc(C(F)(F)F)cn2)c1C(=O)Nc1ccc(OC2CCN(CC(F)(F)F)CC2)c(F)c1 [Example 163, N-(3-fluoro-4-{[1-(2,2,2-trifluoroethyl)piperidin-4-yl]oxy}phenyl)-3-methyl-5-{[5-(trifluoromethyl)pyrazin-2-yl]amino}-1,2-thiazole-4-carboxamide]
  pIC50: 6.80

## Cc1nsc(Nc2cnc(C(F)(F)F)cn2)c1C(=O)Nc1ccc(OC2CCN(CC(F)F)CC2)c(F)c1 [Example 164, N-(4-{[1-(2,2-difluoroethyl)piperidin-4-yl]oxy}-3-fluorophenyl)-3-methyl-5-{[5-(trifluoromethyl)pyrazin-2-yl]amino}-1,2-thiazole-4-carboxamide]
  pIC50: 6.80

## Cc1nsc(Nc2cnc(C(F)(F)F)cn2)c1C(=O)Nc1ccc(C(=O)NC2CCN(CC(F)(F)F)CC2)cc1 [Example 165, 3-methyl-N-(4-{[1-(2,2,2-trifluoroethyl)piperidin-4-yl]carbamoyl}phenyl)-5-{[5-(trifluoromethyl)pyrazin-2-yl]amino}-1,2-thiazole-4-carboxamide]
  pIC50: 5.49

## Cc1nsc(Nc2cncc(C(F)(F)F)n2)c1C(=O)Nc1ccc(OCC2CCCN(C(=O)OC(C)(C)C)C2)nc1 (centres unmarked) [Example 166, tert-butyl 3-{[(5-{[(3-methyl-5-{[6-(trifluoromethyl)pyrazin-2-yl]amino}-1,2-thiazol-4-yl)carbonyl]amino}pyridin-2-yl)oxy]methyl}piperidine-1-carboxylate]
  pIC50: 6.08

## Cc1nsc(Nc2cncc(C(F)(F)F)n2)c1C(=O)Nc1ccc(C(=O)NC2CCN(CC(F)(F)F)CC2)cc1 [Example 167, 3-methyl-N-(4-{[1-(2,2,2-trifluoroethyl)piperidin-4-yl]carbamoyl}phenyl)-5-{[6-(trifluoromethyl)pyrazin-2-yl]amino}-1,2-thiazole-4-carboxamide]
  pIC50: 5.37

## Cc1nsc(Nc2cncc(C(F)(F)F)n2)c1C(=O)Nc1ccc(F)c(OC2CCN(C(=O)OC(C)(C)C)CC2)c1 [Example 168, tert-butyl 4-(2-fluoro-5-{[(3-methyl-5-{[6-(trifluoromethyl)pyrazin-2-yl]amino}-1,2-thiazol-4-yl)carbonyl]amino}phenoxy)piperidine-1-carboxylate]
  pIC50: 6.04

## Cc1nsc(Nc2cnc3ccccc3n2)c1C(=O)Nc1ccc(N2CCOCC2)nc1 [Example 169, 3-methyl-N-[6-(morpholin-4-yl)pyridin-3-yl]-5-(quinoxalin-2-ylamino)-1,2-thiazole-4-carboxamide]
  pIC50: < 5.00

## Cc1nsc(Nc2ccc(C#N)cn2)c1C(=O)Nc1ccc(N[C@@H](C)C(=O)OC(C)(C)C)nc1 [Example 170, tert-butyl N-{5-[({5-[(5-cyanopyridin-2-yl)amino]-3-methyl-1,2-thiazol-4-yl}carbonyl)amino]pyridin-2-yl}alaninate]
  pIC50: < 5.00

— US20170334899A1, “AMINO-SUBSTITUTED ISOTHIAZOLES” (Bayer Pharma Aktiengesellschaft, priority 2014, published 2017)
